ChEMBL document CHEMBL1146677, “Orally active anti-proliferation agents: novel diphenylamine derivatives as FGF-R2 autophosphorylation inhibitors” (Bioorg Med Chem Lett, 2004)
Converted amounts (≈) assume the structure as drawn. The source made the active and inactive calls.

Key:
[1] = target: T1, Fibroblast growth factor receptor 2 (Homo sapiens, UniProt P21802); test: In vitro inhibition against autophosphorylation of Fibroblast growth factor receptor 2 in the human scirrhous gastric carcinoma cell line
Target sequence in this assay (P21802 whole entry): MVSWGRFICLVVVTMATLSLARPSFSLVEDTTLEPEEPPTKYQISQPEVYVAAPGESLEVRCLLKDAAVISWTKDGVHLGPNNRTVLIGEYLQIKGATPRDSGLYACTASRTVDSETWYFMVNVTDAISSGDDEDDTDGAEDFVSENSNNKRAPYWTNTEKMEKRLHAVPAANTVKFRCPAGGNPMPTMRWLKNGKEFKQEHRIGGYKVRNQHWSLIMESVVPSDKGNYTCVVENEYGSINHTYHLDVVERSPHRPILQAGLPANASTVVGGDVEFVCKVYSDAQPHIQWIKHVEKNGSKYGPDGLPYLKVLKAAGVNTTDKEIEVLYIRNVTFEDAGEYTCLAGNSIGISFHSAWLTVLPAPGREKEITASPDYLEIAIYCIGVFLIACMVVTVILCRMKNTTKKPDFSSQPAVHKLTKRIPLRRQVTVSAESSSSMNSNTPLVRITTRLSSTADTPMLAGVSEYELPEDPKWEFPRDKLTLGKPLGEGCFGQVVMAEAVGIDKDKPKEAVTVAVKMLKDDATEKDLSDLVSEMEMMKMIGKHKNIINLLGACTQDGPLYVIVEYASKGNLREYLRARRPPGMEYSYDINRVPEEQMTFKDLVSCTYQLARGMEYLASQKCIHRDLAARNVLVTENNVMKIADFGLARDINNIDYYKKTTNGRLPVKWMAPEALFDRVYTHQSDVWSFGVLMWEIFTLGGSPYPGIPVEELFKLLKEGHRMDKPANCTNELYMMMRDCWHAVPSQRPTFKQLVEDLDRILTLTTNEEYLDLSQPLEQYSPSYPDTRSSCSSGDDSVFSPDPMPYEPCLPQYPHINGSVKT

[2] = target: T1, Fibroblast growth factor receptor 2; test: Ex vivo inhibition of fibroblast growth factor receptor (FGF-R2) autophosphorylation 5 hr after the oral administration at 100 mg/kg; format: functional, organism-based; parameters: dose 100 mg/kg
Target sequence in this assay (P21802 22-821 limits assumed): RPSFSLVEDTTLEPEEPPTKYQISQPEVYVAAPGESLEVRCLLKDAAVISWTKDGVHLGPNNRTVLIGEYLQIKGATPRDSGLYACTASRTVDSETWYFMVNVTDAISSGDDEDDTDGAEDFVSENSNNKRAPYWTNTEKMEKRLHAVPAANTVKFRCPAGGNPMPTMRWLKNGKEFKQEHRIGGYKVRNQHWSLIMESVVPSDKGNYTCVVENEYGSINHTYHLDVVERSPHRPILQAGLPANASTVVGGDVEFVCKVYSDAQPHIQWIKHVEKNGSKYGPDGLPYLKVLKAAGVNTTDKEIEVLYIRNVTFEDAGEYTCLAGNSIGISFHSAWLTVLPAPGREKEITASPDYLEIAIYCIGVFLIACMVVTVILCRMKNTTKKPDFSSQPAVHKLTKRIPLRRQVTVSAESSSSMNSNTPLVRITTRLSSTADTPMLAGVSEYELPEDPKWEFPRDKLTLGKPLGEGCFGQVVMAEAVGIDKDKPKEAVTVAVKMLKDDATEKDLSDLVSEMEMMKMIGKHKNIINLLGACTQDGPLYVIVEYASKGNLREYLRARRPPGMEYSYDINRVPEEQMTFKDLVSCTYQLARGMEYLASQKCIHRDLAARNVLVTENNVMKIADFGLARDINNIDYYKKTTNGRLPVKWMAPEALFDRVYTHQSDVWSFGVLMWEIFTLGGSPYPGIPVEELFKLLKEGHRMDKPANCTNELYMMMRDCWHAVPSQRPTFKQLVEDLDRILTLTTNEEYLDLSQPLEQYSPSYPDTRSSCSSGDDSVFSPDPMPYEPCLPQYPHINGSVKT

[3] = Solubility after at a pH 1.2; format: physicochemical; settings: buffer, read-out: Activity
Rattus norvegicus [4] = organism: Rattus norvegicus; test: Percent remaining after incubation with rat liver microsomes for 10 min; format: functional
[5] = Solubility after at pH 1.2; format: physicochemical; settings: buffer, read-out: Activity
[6] = Solubility after injection of water; format: physicochemical; settings: read-out: Activity
[7] = target: T2, Epidermal growth factor receptor (Homo sapiens, UniProt P00533); test: Inhibition of EGF-receptor autophosphorylation in intact cells at 10 uM (inactive); format: cell-based
[8] = target: T2, Epidermal growth factor receptor; test: Inhibition of EGF-receptor autophosphorylation in intact cells; format: cell-based
Homo sapiens [9] = organism: Homo sapiens; test: Percent remaining after incubation with human liver microsomes for 10 min; format: functional
Homo sapiens [10] = organism: Homo sapiens; test: Percent remaining after incubation with human liver microsomes for 40 min; format: functional
[11] = target: T3, Insulin-like growth factor 1 receptor (Homo sapiens, UniProt P08069); test: Inhibition of IGF-receptor 1 autophosphorylation in intact cells at 10 uM (inactive); format: cell-based
[12] = target: T3, Insulin-like growth factor 1 receptor; test: Inhibition of IGF-receptor 1 autophosphorylation in intact cells; format: cell-based
[13] = target: Platelet-derived growth factor receptor (Homo sapiens, UniProt P09619+P16234); test: Inhibition of PDGF-receptor autophosphorylation in intact cells; format: cell-based
Rattus norvegicus [14] = organism: Rattus norvegicus; test: Percent remaining after incubation with rat liver microsomes for 40 min; format: functional
[15] = target: Mast/stem cell growth factor receptor Kit (Homo sapiens, UniProt P10721); test: Inhibition of c-Kit autophosphorylation in intact cells; format: cell-based
[16] = target: T4, Hepatocyte growth factor receptor (Homo sapiens, UniProt P08581); test: Inhibition of c-Met autophosphorylation in intact cells at 10 uM (inactive); format: cell-based
[17] = target: T4, Hepatocyte growth factor receptor; test: Inhibition of c-Met autophosphorylation of in intact cells; format: cell-based
[18] = target: Vascular endothelial growth factor receptor 2 (Homo sapiens, UniProt P35968); test: Inhibition of vascular endothelial growth factor receptor 2 autophosphorylation in intact cells; format: cell-based

T2 sequence (P00533 whole entry): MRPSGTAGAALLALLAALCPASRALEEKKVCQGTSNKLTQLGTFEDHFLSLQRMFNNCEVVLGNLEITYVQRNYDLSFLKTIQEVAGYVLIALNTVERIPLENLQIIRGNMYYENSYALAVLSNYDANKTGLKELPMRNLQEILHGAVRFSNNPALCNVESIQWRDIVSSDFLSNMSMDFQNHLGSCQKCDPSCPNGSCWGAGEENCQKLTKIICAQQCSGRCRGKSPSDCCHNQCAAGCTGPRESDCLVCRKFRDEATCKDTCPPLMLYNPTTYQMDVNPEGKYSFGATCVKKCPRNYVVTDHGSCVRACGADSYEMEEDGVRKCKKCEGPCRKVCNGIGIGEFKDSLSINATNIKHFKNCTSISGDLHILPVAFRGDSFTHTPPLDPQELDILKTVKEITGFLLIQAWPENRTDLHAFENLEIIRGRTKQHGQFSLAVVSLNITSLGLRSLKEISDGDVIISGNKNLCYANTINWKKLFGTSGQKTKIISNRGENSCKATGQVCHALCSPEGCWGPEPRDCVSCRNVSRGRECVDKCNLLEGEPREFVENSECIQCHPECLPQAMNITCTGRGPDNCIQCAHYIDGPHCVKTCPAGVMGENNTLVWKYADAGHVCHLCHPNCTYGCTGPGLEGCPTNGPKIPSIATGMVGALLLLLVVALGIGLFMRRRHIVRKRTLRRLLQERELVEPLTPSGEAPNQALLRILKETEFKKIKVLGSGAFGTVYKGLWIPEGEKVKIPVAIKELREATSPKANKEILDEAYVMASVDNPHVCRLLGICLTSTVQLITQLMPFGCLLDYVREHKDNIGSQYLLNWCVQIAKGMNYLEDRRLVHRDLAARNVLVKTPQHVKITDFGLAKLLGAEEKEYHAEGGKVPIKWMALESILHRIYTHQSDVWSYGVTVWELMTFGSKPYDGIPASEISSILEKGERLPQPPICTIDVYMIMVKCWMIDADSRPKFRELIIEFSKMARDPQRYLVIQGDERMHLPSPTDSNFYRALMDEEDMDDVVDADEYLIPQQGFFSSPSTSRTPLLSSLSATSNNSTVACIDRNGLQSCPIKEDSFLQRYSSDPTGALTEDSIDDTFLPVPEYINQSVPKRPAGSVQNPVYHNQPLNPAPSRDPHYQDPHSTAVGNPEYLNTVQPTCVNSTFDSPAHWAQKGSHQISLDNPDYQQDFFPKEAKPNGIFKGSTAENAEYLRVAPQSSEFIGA
T3 sequence (P08069 31-736 limits assumed): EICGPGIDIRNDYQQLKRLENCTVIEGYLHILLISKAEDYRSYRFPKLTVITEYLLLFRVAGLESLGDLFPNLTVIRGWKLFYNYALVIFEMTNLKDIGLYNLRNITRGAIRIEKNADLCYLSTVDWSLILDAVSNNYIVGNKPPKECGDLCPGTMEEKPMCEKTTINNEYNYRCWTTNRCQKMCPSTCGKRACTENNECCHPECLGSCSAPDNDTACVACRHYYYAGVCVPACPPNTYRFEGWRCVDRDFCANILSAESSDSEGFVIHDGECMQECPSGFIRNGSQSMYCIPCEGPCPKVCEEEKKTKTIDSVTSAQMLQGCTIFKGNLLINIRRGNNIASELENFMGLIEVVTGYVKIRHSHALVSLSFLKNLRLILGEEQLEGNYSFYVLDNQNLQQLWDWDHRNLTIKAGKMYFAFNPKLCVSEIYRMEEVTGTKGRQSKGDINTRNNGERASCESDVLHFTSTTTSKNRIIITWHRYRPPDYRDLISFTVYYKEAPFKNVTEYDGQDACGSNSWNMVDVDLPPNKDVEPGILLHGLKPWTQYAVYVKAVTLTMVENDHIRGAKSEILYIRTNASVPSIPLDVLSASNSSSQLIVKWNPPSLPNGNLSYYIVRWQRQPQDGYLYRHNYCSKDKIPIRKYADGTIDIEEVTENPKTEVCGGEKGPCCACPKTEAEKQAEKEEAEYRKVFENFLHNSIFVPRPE
T3 sequence (P08069 741-1367 limits assumed): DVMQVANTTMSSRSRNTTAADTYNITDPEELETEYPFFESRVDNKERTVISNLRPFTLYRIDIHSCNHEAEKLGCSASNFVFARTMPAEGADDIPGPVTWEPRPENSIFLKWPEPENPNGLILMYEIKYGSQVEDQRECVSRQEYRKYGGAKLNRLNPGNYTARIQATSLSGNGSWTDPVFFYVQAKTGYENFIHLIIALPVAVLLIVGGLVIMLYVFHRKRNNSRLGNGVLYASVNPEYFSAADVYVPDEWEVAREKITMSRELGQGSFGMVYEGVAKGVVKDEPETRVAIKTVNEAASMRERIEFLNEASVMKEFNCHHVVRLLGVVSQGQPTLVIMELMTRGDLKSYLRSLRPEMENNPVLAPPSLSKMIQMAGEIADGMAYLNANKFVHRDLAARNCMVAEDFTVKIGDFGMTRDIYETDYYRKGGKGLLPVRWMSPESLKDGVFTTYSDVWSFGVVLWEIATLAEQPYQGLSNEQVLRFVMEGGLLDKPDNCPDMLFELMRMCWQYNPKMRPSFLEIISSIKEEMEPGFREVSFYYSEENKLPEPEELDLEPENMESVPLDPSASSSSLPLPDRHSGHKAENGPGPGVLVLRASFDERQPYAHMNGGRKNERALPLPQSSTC

Compound | IC50 [1] [nM] | Metabolism (Rattus norvegicus [4]) [%] | also measured
COc1cc2nccc(Oc3ccc(NC4CCC(C(C)(C)C)CC4)cc3)c2cc1OC (stereo unspecified) | 3400 | – | –
COc1cc2nccc(Oc3ccc(Nc4ccc(C(C)(C)C)cc4)cc3C)c2cc1OC | > 10000 | – | –
COc1cc2nccc(Oc3ccc(Cc4ccc(C(C)(C)C)cc4)cc3)c2cc1OC | > 1000 | – | inhibition [2]: 5%
COc1cc2nccc(Oc3ccc(Oc4ccc(C(C)(C)C)cc4)cc3)c2cc1OC | 440 | – | –
COc1cc2nccc(Oc3ccc(Nc4ccccc4)cc3)c2cc1OC | 8900 | – | –
COc1cc2nccc(Oc3ccc(Nc4ccc(C(C)(C)C)cc4)cc3)c2cc1OC | 40 | – | solubility [3]: 3 µg/mL (≈ 7 µM); inhibition [2]: 70%
COc1cc2nccc(Oc3ccc(Nc4ccc(C(C)(C)C)cc4)cc3F)c2cc1OC | 54 | – | –
COc1cc2nccc(Oc3ccc(Nc4ccc(C(C)C)cc4)cc3)c2cc1OC | 200 | – | –
COc1cc2c(Oc3ccc(Nc4ccc(C(C)(C)C)cc4)cc3)ccnc2cc1OCCN1CCOCC1 | 200 | 9 | –
COc1cc2nccc(Oc3ccc(Nc4ccc(C(C)(C)C)cc4)c(C(F)(F)F)c3)c2cc1OC | > 10000 | – | –
COc1cc2c(Oc3ccc(Nc4ccc(C(C)(C)C)cc4)cc3)ccnc2cc1OCCN1CCC(CO)CC1 | 23 | 51 | –
COc1cc2nccc(Oc3ccc(Nc4ccc(C(C)(C)C)cc4)c(C)c3)c2cc1OC | 100 | – | –
COc1cc2nccc(Oc3ccc(Nc4ccc(C(C)(C)C)cc4)c(C)c3C)c2cc1OC | 130 | – | –
COc1cc2c(Oc3ccc(Nc4ccc(C(C)(C)C)cc4)c(F)c3)ccnc2cc1OCCNCCO | 260 | 92 | –
COc1ccc(Nc2ccc(Oc3ccnc4cc(OC)c(OC)cc34)cc2)cc1 | 780 | – | –
COc1cc2c(Oc3ccc(Nc4ccc(C(C)(C)C)cc4)cc3)ccnc2cc1OCCN(CCO)CCO | 71 | 46 | –
COc1cc2c(Oc3ccc(Nc4ccc(C(C)(C)C)cc4)cc3)ccnc2cc1OCCNCCO | 88 | 97 | solubility [5]: 802 µg/mL (≈ 1600 µM); solubility [6]: 108 µg/mL (≈ 215 µM); Activity [7]: inactive; IC50 [8]: > 10000 nM; Metabolism (Homo sapiens [9]): 99%; Metabolism (Homo sapiens [10]): 89%; Activity [11]: inactive; IC50 [12]: > 10000 nM; IC50 [13]: 100 nM; Metabolism (Rattus norvegicus [14]): 78%; IC50 [15]: 480 nM; Activity [16]: inactive; IC50 [17]: > 10000 nM; IC50 [18]: 83 nM
COc1cc2nccc(Oc3ccc(Nc4cccc(-c5ccccc5)c4)cc3)c2cc1OC | > 10000 | – | –
COc1cc2c(Oc3ccc(Nc4ccc(C(C)(C)C)cc4)cc3F)ccnc2cc1OCCNCCO | 70 | 60 | –
COc1cc2c(Oc3ccc(Nc4ccc(C(C)(C)C)cc4)cc3)ccnc2cc1OCC(O)CN1CCOCC1 (stereo unspecified) | 71 | 72 | –
COc1cc2nccc(Oc3ccc(C(=O)c4ccc(C(C)(C)C)cc4)cc3)c2cc1OC | 190 | – | inhibition [2]: 3%
COc1cc2nccc(Oc3ccc(Nc4ccc(C(C)(C)C)cc4)c(F)c3)c2cc1OC | 63 | – | –
COc1cc2c(Oc3ccc(Nc4ccc(C(C)(C)C)cc4)cc3)ccnc2cc1OCCCN1CCCCC1 | 350 | 28 | –
COc1cc2c(Oc3ccc(Nc4ccc(C(C)(C)C)cc4)cc3)ccnc2cc1OCC(O)CN1CCCCC1 (stereo unspecified) | 200 | 78 | –
